“Also recorded” adds a separate entry of the source.
How the values were obtained:
[1] = target: T1, norepinephrine transporter (NET) (Homo sapiens, UniProt P23975); assay: Secondary radioligand binding assay (affinity); details: FIG. 10A
T1 construct: expressed in transfected cells
Method: The secondary binding assay was performed only when the inhibition in the primary screen was over 50%. A secondary binding assay was utilized to determine the binding affinity for the identified receptor.
50 μL of a crude membrane fraction of cells expressing the respective receptors were applied to each well. Reaction incubation, harvesting and radioactivity measurement from the primary assay were repeated. Affinity is expressed as pKi (−log Ki).

[2] = target: Sigma 1 (Homo sapiens, UniProt Q99720); assay: Primary radioligand binding screen; design: expressed in transfected cells; details: primary binding, Sigma 1; dezocine 10 μM
Method: (§1) Evidence for interaction was based on the inhibition of the reference ligand-binding signal. […] Briefly, 50 μL aliquots of radioactive ligand (5 nM) were added to wells of a 96-well plate, which contained 25 μL of the reference or test ligands. We employed transfected cell lines expressing mainly human (unless otherwise specified) recombinant receptors, monoamine transporters, or ion channels for crude membrane preparation. Detailed information about our membrane preparation is well known in the art and can be obtained from publicly available protocol online. Crude membrane fractions containing the receptors were resuspended in standard binding buffer and 50 μL aliquots added to each well. The reactions were incubated at room temperature for 1.5 hours to allow for radioligand binding equilibration. Bound radioactivity was harvested by rapid filtration through a 0.3% polyethyleneimine-treated, 96-well filter mats using a 96-well Filtermate harvester. The dried filters were treated with melted scintillant and a Microbeta scintillation counter was utilized to measure the radioactivity retained on the filter.

[3] = target: T2, NET (Homo sapiens, UniProt P23975); assay: Primary radioligand binding screen; details: primary binding, NET; dezocine 10 μM
T2 construct: expressed in transfected cells
Method: as §1

[4] = target: T3, 5-HT1B (Homo sapiens, UniProt P28222); assay: Primary radioligand binding screen; details: primary binding, 5-HT1B; dezocine 10 μM
T3 construct: expressed in transfected cells
Method: as §1

[5] = target: T4, 5-HT1E (Homo sapiens, UniProt P28566); assay: Primary radioligand binding screen; details: primary binding, 5-HT1E; dezocine 10 μM
T4 construct: expressed in transfected cells
Method: as §1

[6] = target: T5, D4 (Homo sapiens, UniProt P21917); assay: Primary radioligand binding screen; details: primary binding, D4; dezocine 10 μM
T5 construct: expressed in transfected cells
Method: as §1

[7] = target: T6, Alpha2A (Homo sapiens, UniProt P08913); assay: Primary radioligand binding screen; details: primary binding, Alpha2A; dezocine 10 μM
T6 construct: expressed in transfected cells
Method: as §1

[8] = target: T7, Beta3 (Homo sapiens, UniProt P13945); assay: Primary radioligand binding screen; details: primary binding, Beta3; dezocine 10 μM
T7 construct: expressed in transfected cells
Method: as §1

[9] = target: T8, 5-HT2C (Homo sapiens, UniProt P28335); assay: Primary radioligand binding screen; details: primary binding, 5-HT2C; dezocine 10 μM
T8 construct: expressed in transfected cells
Method: as §1

[10] = target: T9, D2 (Homo sapiens, UniProt P14416); assay: Primary radioligand binding screen; details: primary binding, D2; dezocine 10 μM
T9 construct: expressed in transfected cells
Method: as §1

[11] = target: T10, M5 (Homo sapiens, UniProt P08912); assay: Primary radioligand binding screen; details: primary binding, M5; dezocine 10 μM
T10 construct: expressed in transfected cells
Method: as §1

[12] = target: T11, 5-HT2B (Homo sapiens, UniProt P41595); assay: Primary radioligand binding screen; details: primary binding, 5-HT2B; dezocine 10 μM
T11 construct: expressed in transfected cells
Method: as §1

[13] = target: T12, D1 (Homo sapiens, UniProt P21728); assay: Primary radioligand binding screen; details: primary binding, D1; dezocine 10 μM
T12 construct: expressed in transfected cells
Method: as §1

[14] = target: T13, H2 (Homo sapiens, UniProt P25021); assay: Primary radioligand binding screen; details: primary binding, H2; dezocine 10 μM
T13 construct: expressed in transfected cells
Method: as §1

[15] = target: T14, Alpha1A (Homo sapiens, UniProt P35348); assay: Primary radioligand binding screen; details: primary binding, Alpha1A; dezocine 10 μM
T14 construct: expressed in transfected cells
Method: as §1

[16] = target: T15, 5-HT1A (Homo sapiens, UniProt P08908); assay: Primary radioligand binding screen; details: primary binding, 5-HT1A; dezocine 10 μM
T15 construct: expressed in transfected cells
Method: as §1

[17] = target: T16, Alpha1B (Homo sapiens, UniProt P35368); assay: Primary radioligand binding screen; details: primary binding, Alpha1B; dezocine 10 μM
T16 construct: expressed in transfected cells
Method: as §1

[18] = target: T17, 5-HT1D (Homo sapiens, UniProt P28221); assay: Primary radioligand binding screen; details: primary binding, 5-HT1D; dezocine 10 μM
T17 construct: expressed in transfected cells
Method: as §1

[19] = target: T18, 5-HT6 (Homo sapiens, UniProt P50406); assay: Primary radioligand binding screen; details: primary binding, 5-HT6; dezocine 10 μM
T18 construct: expressed in transfected cells
Method: as §1

[20] = target: T19, 5-HT3 (Homo sapiens, UniProt P46098); assay: Primary radioligand binding screen; details: primary binding, 5-HT3; dezocine 10 μM
T19 construct: expressed in transfected cells
Method: as §1

[21] = target: T20, H3 (Homo sapiens, UniProt Q9Y5N1); assay: Primary radioligand binding screen; details: primary binding, H3; dezocine 10 μM
T20 construct: expressed in transfected cells
Method: as §1

[22] = target: T21, Beta2 (Homo sapiens, UniProt P07550); assay: Primary radioligand binding screen; details: primary binding, Beta2; dezocine 10 μM
T21 construct: expressed in transfected cells
Method: as §1

[23] = target: T22, D3 (Homo sapiens, UniProt P35462); assay: Primary radioligand binding screen; details: primary binding, D3; dezocine 10 μM
T22 construct: expressed in transfected cells
Method: as §1

[24] = target: T23, D5 (Homo sapiens, UniProt P21918); assay: Primary radioligand binding screen; details: primary binding, D5; dezocine 10 μM
T23 construct: expressed in transfected cells
Method: as §1

[25] = target: T24, Alpha2C (Homo sapiens, UniProt P18825); assay: Primary radioligand binding screen; details: primary binding, Alpha2C; dezocine 10 μM
T24 construct: expressed in transfected cells
Method: as §1

[26] = target: T25, 5-hT5A (Homo sapiens, UniProt P47898); assay: Primary radioligand binding screen; details: primary binding, 5-hT5A; dezocine 10 μM
T25 construct: expressed in transfected cells
Method: as §1

[27] = target: T26, 5-HT7 (Homo sapiens, UniProt P34969); assay: Primary radioligand binding screen; details: primary binding, 5-HT7; dezocine 10 μM
T26 construct: expressed in transfected cells
Method: as §1

[28] = target: T27, human cloned SERT (Homo sapiens, UniProt P31645); assay: Serotonin reuptake assay in HEK 293 cells; type: cell-based; details: mean±SE
T27 construct: expressed in transfected cells
Method: In brief, Human Embryonic Kidney 293 cells were plated in Poly-L-Lys (PLL) coated 384-well black clear bottom cell culture plates in DMEM+1% dFBS, at a density of 15,000 cells per well in a total volume of 40 μl. The cells were incubated for a minimum of 6 hours before use in the assays. The medium was removed and 20 μL of assay buffer (20 mM HEPES, 1×HBSS, pH 7.40) was added, followed by 5 μL of 5× drug solutions. The plate was incubated at 37° C. for 30 min. After the incubation, 25 μL of dye solution was added and fluorescence intensity was measured after […] at 37° C., using FlexStation II (bottom read mode, Excitation at 440 nm, Emission at 520 nm with 510 nm cut-off) from the Molecular Devices. […] The half maximal inhibitory concentration were determined and expressed as pIC50 (pIC50=−log (IC50)).

[29] = target: kappa opioid receptor (Homo sapiens, UniProt P41145); type: biochemical; design: purchased Millipore (Billerica, Mass.); host or cells: Chem-5 mammalian cell line
Sequence of kappa opioid receptor (P41145 whole entry): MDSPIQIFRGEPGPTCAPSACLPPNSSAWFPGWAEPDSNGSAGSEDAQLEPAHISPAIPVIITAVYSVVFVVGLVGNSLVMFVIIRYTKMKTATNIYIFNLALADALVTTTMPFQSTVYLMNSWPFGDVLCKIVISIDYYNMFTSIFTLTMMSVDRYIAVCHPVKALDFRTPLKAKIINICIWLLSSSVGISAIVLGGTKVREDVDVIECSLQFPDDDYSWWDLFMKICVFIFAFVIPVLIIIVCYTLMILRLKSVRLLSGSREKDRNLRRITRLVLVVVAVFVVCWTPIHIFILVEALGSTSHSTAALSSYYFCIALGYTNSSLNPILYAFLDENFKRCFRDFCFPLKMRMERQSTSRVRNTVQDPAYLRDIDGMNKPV
Text: Membrane preparations of recombinant human kappa opioid receptor expressed in the mammalian cell line Chem-5 were obtained from Millipore (Billerica, Mass.). The effects of specific kappa opioid receptor ligands on the activation of the recombinant receptor were investigated by measuring G protein activation in vitro.
The assay reports the initial rates of activation of heterotrimeric G proteins (Gαii1β1γ2) on an agonist-bound receptor by measuring the accumulation of [^35S]-GTPγS (non-hydrolyzable analog of GTP) bound to the activated Gαi1 subunit. […] The G protein activation assay was conducted as follows (final concentrations in 50 μL reaction mixture are given in parentheses): the membrane sample was diluted into ice-cold 10 mM 3-(N-morpholino)propanesulfonic acid (MOPS) buffer to reach a protein concentration of 40 ng/μL. 10 μL of the diluted dispersion were dispensed into pre-siliconized glass tubes and mixed with the ligand in MOPS buffer containing 0.1% (w/v) BSA. Upon addition of a mixture of Gαi1 (100 nM) and Gβ1γ2 (500 nM), the tubes were incubated on ice for 30 minutes. The reaction was started by addition of MOPS buffer pH=7.5 (50 mM), EDTA (1 mM), MgCl2 (3 mM), GDP (4 μM), BSA (0.3% w/v), NaCl (100 mM), DTT (1 mM), and [^35S]-GTPγS (5 nM, 1250 Ci/mmol) followed by rapid transfer of the tubes to a water bath at 30° C. The incubation continued for 45 minutes. The reaction was terminated by addition of 2 mL of ice-cold stop solution, TNMg (20 mM Tris-HCl pH=8.0, 100 mM NaCl, and 25 mM MgCl2). The reaction mixture was rapidly filtered through nitrocellulose filters (Millipore). Filters were washed four times with 2 mL each of cold TNMg buffer, dried, placed in scintillation vials filled with ScintiSafe Econo F scintillation liquid (Fisher, Waltham, Mass.), and the radioactivity counted. Duplicate samples corresponding to every ligand concentration point were counted.

T1 sequence (P23975 whole entry): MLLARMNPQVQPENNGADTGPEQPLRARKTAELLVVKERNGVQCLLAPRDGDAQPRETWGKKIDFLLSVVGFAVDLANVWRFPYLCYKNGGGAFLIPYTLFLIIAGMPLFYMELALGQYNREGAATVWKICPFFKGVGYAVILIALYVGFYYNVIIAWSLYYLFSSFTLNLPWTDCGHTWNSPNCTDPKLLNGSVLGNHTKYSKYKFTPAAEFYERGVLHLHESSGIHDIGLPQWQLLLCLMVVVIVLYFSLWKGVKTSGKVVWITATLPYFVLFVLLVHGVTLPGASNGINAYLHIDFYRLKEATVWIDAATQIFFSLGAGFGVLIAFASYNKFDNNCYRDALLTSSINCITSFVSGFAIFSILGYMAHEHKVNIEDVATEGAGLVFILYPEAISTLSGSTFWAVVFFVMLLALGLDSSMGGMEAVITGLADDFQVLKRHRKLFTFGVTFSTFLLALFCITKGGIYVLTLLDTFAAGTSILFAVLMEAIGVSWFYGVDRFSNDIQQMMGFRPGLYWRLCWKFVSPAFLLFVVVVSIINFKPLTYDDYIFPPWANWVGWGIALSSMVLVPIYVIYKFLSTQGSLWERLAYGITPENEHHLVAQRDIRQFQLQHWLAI
T22 sequence (P35462 whole entry): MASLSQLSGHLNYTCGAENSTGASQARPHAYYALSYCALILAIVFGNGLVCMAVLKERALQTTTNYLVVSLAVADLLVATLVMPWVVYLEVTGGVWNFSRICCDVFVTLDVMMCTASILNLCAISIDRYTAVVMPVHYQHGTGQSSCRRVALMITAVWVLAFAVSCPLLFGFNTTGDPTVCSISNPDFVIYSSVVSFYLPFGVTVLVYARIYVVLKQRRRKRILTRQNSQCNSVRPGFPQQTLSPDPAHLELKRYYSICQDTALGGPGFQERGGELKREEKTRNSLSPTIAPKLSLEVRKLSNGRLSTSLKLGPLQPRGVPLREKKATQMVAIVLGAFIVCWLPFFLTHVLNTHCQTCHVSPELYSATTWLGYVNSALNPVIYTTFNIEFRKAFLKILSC
T16 sequence (P35368 whole entry): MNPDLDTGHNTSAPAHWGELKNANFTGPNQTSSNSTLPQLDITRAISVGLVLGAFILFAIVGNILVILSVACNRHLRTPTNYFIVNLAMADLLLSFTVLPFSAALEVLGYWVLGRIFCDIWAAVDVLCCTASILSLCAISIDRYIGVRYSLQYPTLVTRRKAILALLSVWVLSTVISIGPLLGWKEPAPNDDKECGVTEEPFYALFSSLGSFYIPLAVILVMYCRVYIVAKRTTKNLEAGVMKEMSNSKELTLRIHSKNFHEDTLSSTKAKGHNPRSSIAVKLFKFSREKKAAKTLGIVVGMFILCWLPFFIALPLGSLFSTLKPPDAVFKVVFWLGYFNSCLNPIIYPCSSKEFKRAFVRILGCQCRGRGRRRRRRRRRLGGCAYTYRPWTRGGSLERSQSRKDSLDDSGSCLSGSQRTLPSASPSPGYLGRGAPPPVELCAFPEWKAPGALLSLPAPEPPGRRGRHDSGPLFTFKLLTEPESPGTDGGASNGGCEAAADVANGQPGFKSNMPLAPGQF
T4 sequence (P28566 whole entry): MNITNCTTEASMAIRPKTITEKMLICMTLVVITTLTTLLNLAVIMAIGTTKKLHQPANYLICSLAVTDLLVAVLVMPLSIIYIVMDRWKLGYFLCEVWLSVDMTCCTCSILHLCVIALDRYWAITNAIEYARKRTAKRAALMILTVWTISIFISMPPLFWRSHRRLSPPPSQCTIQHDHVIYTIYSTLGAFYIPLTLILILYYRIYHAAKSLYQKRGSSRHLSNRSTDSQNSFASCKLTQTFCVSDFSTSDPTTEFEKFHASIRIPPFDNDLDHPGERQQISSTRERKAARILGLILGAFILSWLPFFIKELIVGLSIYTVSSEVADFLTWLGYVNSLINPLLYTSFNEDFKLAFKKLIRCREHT
T27 sequence (P31645 whole entry): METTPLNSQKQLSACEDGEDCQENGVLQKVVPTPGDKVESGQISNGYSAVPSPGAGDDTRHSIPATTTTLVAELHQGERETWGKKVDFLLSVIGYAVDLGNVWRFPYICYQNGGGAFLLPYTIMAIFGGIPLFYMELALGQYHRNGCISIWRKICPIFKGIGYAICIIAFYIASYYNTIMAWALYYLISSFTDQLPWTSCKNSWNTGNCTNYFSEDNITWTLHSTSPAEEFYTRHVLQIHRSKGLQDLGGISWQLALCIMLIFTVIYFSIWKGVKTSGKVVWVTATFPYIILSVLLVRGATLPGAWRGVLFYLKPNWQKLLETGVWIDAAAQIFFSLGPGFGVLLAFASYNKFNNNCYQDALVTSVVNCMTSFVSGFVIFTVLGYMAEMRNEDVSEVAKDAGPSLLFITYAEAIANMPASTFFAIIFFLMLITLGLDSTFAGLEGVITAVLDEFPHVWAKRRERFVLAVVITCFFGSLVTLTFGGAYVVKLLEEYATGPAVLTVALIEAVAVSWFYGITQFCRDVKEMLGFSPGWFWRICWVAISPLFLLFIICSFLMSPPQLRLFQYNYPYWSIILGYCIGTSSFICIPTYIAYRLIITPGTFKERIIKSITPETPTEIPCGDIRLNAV
Sequence of Sigma 1 (Q99720 whole entry): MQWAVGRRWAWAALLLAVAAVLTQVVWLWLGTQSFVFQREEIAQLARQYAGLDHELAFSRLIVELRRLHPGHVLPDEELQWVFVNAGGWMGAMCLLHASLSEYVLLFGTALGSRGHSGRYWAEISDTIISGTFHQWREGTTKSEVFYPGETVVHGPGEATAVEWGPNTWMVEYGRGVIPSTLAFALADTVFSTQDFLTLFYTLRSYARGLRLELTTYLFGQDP
T25 sequence (P47898 whole entry): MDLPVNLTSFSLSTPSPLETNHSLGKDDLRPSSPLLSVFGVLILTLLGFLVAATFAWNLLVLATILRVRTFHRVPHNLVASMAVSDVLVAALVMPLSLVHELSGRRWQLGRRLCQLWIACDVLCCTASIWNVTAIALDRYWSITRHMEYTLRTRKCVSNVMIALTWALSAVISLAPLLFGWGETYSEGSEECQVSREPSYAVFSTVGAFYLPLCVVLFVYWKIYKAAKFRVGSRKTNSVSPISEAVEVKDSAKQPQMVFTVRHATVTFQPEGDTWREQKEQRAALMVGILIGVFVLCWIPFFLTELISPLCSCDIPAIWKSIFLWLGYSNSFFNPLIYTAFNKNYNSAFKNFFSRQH
T20 sequence (Q9Y5N1 whole entry): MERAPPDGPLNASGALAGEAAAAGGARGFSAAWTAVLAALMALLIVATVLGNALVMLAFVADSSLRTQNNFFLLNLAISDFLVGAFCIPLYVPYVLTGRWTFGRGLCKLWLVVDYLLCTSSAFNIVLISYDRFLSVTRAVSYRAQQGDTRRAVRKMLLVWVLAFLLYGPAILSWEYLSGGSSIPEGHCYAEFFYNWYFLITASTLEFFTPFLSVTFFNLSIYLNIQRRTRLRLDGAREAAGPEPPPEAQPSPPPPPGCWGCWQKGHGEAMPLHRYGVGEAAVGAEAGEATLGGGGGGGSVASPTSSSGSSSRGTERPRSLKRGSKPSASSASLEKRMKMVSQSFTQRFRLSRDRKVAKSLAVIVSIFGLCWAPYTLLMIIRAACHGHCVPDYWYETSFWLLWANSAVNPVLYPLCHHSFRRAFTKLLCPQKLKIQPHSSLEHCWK
T9 sequence (P14416 whole entry): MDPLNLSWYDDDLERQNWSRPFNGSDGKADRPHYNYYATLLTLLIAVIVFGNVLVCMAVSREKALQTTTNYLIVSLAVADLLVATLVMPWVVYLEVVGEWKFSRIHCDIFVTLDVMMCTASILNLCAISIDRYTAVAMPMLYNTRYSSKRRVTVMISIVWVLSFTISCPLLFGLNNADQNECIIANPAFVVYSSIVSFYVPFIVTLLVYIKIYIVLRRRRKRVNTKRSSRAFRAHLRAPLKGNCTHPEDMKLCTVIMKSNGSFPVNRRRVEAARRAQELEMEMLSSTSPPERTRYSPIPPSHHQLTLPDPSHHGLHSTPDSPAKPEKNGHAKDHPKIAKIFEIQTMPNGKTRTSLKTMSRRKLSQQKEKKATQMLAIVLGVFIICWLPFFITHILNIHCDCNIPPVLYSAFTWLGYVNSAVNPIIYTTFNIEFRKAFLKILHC
T10 sequence (P08912 whole entry): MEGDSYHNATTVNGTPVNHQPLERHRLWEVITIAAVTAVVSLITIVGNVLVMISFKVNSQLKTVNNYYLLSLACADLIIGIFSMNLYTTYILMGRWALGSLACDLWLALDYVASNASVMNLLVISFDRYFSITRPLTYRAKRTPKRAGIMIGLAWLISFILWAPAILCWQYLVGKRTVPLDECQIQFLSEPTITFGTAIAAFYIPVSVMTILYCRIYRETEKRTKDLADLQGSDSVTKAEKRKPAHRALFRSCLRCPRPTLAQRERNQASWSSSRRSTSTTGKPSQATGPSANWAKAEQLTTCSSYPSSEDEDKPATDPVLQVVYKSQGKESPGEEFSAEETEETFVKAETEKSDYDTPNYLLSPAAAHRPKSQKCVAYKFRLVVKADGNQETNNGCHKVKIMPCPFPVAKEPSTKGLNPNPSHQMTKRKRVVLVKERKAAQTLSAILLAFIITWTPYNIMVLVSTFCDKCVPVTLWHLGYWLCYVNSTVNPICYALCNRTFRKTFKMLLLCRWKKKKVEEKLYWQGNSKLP
T2 sequence (P23975 whole entry): as the sequence (P23975 whole entry) above

SMILES: CN1CC[C@]23c4c5ccc(O)c4O[C@H]2[C@@H](O)C=C[C@H]3[C@H]1C5 [Morphine]
- interaction (binding activity) with NET [1]: No significant binding activity

SMILES: C=CCN1CC[C@]23c4c5ccc(O)c4O[C@H]2C(=O)CC[C@@]3(O)[C@H]1C5 [Naloxone]
- % inhibition [2]: 9.6%
- % inhibition [3]: 43.8%
- % inhibition [4]: −1%
- % inhibition [5]: −5.7%
- % inhibition [6]: −5.8%
- % inhibition [7]: 12.9%
- % inhibition [8]: −3.1%
- % inhibition [9]: 21.1%
- % inhibition [10]: −0.8%
- % inhibition [11]: 32.1%
- % inhibition [12]: 49.6%
- % inhibition [13]: 5.5%
- % inhibition [14]: 57.4%
- % inhibition [15]: 4%
- % inhibition [16]: 5.8%
- % inhibition [17]: −2%
- % inhibition [18]: −1.6%
- % inhibition [19]: 27.6%
- % inhibition [20]: 0%
- % inhibition [21]: 8.9%
- % inhibition [22]: −2.6%
- % inhibition [23]: 1.9%
- % inhibition [24]: 2.1%
- % inhibition [25]: 22.7%
- % inhibition [26]: 28.9%
- % inhibition [27]: 60.3%
- interaction (binding activity) with NET [1]: No significant binding activity

SMILES: CNCCC(Oc1ccccc1OC)c1ccccc1 (stereo not drawn) [nisoxetine]
- pIC50 of SERT (serotonin reuptake) [28]: 5.99±0.07

SMILES: Oc1ccc2c3c1O[C@H]1c4[nH]c5c(c4C[C@@]4(O)[C@@H](C2)N(CC2CC2)CC[C@]314)C[C@@]1(O)[C@H]2Cc3ccc(O)c4c3[C@@]1(CCN2CC1CC1)[C@H]5O4 [nor-binaltorphimine]
- G protein activation in the presence of kappa receptor [29]: inverse kappa agonist; also recorded: did not induce G protein activation
